Measurements reported in US4014999A, “Halo-steroidal thioketals for treating inflammation” (Ortho Pharmaceutical Corporation, priority 1976, dated 1977).

Tested on: left hind paw inflammation in rats with adjuvant arthritis
Assay: Therapeutic Treatment of Adjuvant Arthritis in Rats (left hind paw inflammation)
Type: in vivo, Carworth Wistar (Lewis) rats
Method: Carworth Wistar (Lewis) rats weighing approximately 200 grams are anesthetized with ether, weighed and their hind paws measured by means of a mercury displacement method. The left hind paw is injected intradermally with heat-killed Mycobacterium tuberculosis in white mineral oil. Measurements of body weight and paw volume are obtained on days 2, 5, 10, 15, 20 and 25. Therapeutic treatment is started on day 15.
Following the injection with Mycobacterium tuberculosis, a primary inflammation develops immediately in the injected paw. Secondary inflammation of the joints of the other legs and feet, nodules on the tail and red spots on the ears develop about day 10-15. The object of the test is to determine the anti-inflammatory effects of the drug treatments.
Groups of rats (five rats/group) are treated as follows: One group receives no Mycobacterium tuberculosis and is the negative control group. One group receives Mycobacterium tuberculosis but no anti-inflammatory drug and is the positive control group. Other groups receive Mycobacterium tuberculosis and either oral or topical test compounds or standard anti-inflammatory agents beginning on day 15 and are considered experimental groups. Experimental anti-inflammatory and standard anti-inflammatory compounds are administered either once every five days, i.e., after grading on days 15 and 20, or once/day on days 15-24.
In the topical studies a measured amount of drug is mixed into about 0.5 ml of SILASTIC* Medical Adhesive (or other appropriate vehicle) and applied to cover the left hind paw. Rats so treated are housed individually to eliminate the removal of the medication by another rat. The following, Tables 1 and 2 illustrate the anti-inflammatory potency and efficacy of the oral and topical treatments.

[1] = oral, once per day, 0.00375 mg/kg
[2] = oral, once per day, 0.00750 mg/kg
[3] = oral, once per day, 0.01500 mg/kg
[4] = oral, once per day, 0.03000 mg/kg
[5] = oral, once per day, 0.06250 mg/kg
[6] = oral, once per day, 0.12500 mg/kg

| Structure (SMILES) | Percent Inhibition of Left Hind Paw Inflammation (oral, once every five days, 0.075 mg/kg/5 days) [%] | Percent Inhibition of Left Hind Paw Inflammation (oral, once every five days, 0.150 mg/kg/5 days) [%] | Percent Inhibition of Left Hind Paw Inflammation (oral, once every five days, 0.300 mg/kg/5 days) [%] | Percent Inhibition of Left Hind Paw Inflammation (oral, once every five days, 0.625 mg/kg/5 days) [%] | Percent Inhibition of Left Hind Paw Inflammation (oral, once every five days, 1.250 mg/kg/5 days) [%] | Percent Inhibition of Left Hind Paw Inflammation (oral, once every five days, 2.500 mg/kg/5 days) [%] | Percent Inhibition of Left Hind Paw Inflammation [1] [%] | Percent Inhibition of Left Hind Paw Inflammation [2] [%] | Percent Inhibition of Left Hind Paw Inflammation [3] [%] | Percent Inhibition of Left Hind Paw Inflammation [4] [%] | Percent Inhibition of Left Hind Paw Inflammation [5] [%] | Percent Inhibition of Left Hind Paw Inflammation [6] [%] | Percent Inhibition of Left Hind Paw Inflammation (oral, once per day, 0.25000 mg/kg) [%] | Percent Inhibition of Left Hind Paw Inflammation (topical (in SILASTIC Medical Adhesive), once every five days, 0.300 mg/kg/5 days) [%] | Percent Inhibition of Left Hind Paw Inflammation (topical (in SILASTIC Medical Adhesive), once every five days, 0.625 mg/kg/5 days) [%] | Percent Inhibition of Left Hind Paw Inflammation (topical (in SILASTIC Medical Adhesive), once every five days, 1.250 mg/kg/5 days) [%] | Percent Inhibition of Left Hind Paw Inflammation (topical (in SILASTIC Medical Adhesive), once every five days, 2.500 mg/kg/5 days) [%] |
| --- | --- | --- | --- | --- | --- | --- | --- | --- | --- | --- | --- | --- | --- | --- | --- | --- | --- |
| CC1(C)O[C@@H]2C[C@H]3[C@@H]4C[C@H](F)C5=CC6(C=C[C@]5(C)[C@@]4(F)[C@@H](O)C[C@]3(C)[C@]2(C(=O)CO)O1)SCCS6 [Compound A, 6α,9-difluoropregna-1,4-diene-11β,16α,17,21-tetrol-3,20-dione-3-ethylenedithioketal-16,17-acetonide] | 14.7 | 15.3 | 18.1 | 29.0 | 35.0 | 44.3 | 5 | 9 | 43 | 34 | 60 | 83 | 95 | 31.1 | 52.6 | 57.5 | 64.5 |
| CC1(C)O[C@@H]2C[C@H]3[C@@H]4C[C@H](F)C5=CC(=O)C=C[C@]5(C)[C@@]4(F)[C@@H](O)C[C@]3(C)[C@]2(C(=O)CO)O1 [Compound B, fluocinolone acetonide, reference compound] |  |  |  |  |  |  | 19 | 15 | 32 | 66 | 76 | 64 |  |  |  |  |  |
